Measurements taken from US5693668A, “Acetylcholinesterase inhibitors” (priority 1989, dated 1997).
Read-outs that look alike come from different tables or passages of the source.

Key:
[1] = In vivo transdermal delivery of MDL 73,745 from prototype patch in Beagle dogs; parameters: species or system Beagle dog
Protocol: Transdermal Bioavailability of MDL 73,745 from a prototype transdermal delivery system in Beagle Dogs
A `lead` prototype formulation was then evaluted in an in vivo dog model. […] The rate of in vivo transdermal delivery in the dog was calculated to be 7.7 μg/cm^2 /hr.
(§1) Three male Beagle dogs were studied. Animals were fasted 12 h before drug administration but had free access to drinking water. The following single doses of [^14 C]-MDL 73,745 were administered: intravenous (iv): 1 and 2 mg/kg; oral (po): 10 mg/kg; subcutaneous (sc): 10 mg/kg. There was a two week wash-out period between each administration. Drug was administered as a suspension in 0.5% methyl cellulose.
From the equation: S.ko=Cl.Css
S=area (cm^2) of the patch
Css =steady-state concentration (ng/ml)
ko-rate of release from the delivery system per unit surface area can be calculated: […]

[2] = Pharmacokinetics and bioavailability of [14C]-MDL 73,745 in Beagle dogs; type: in vivo, Beagle dog; conditions: for half-life / clearance / Vd / Cmax / Tmax / bioavailability: dog, in vivo; for Vd: read-out: aVd; for bioavailability: normalized to 2 mg/kg iv
Protocol: as §1, with “cellulose. […]” for “cellulose.”

[3] = iv, 2 mg/kg, iv 2 mg/kg, dog No. 17
[4] = iv, 2 mg/kg, iv 2 mg/kg, dog No. 18
[5] = iv, 2 mg/kg, iv 2 mg/kg, dog No. 19
[6] = iv, 2 mg/kg, iv 2 mg/kg, mean ± SD of 3 dogs
[7] = po, 10 mg/kg, oral 10 mg/kg, dog No. 17
[8] = po, 10 mg/kg, oral 10 mg/kg, dog No. 18
[9] = po, 10 mg/kg, oral 10 mg/kg, dog No. 19
[10] = po, 10 mg/kg, oral 10 mg/kg, mean ± SD of 3 dogs
[11] = sc, 10 mg/kg, subcutaneous 10 mg/kg, dog No. 17
[12] = sc, 10 mg/kg, subcutaneous 10 mg/kg, dog No. 18
[13] = sc, 10 mg/kg, subcutaneous 10 mg/kg, dog No. 19
[14] = sc, 10 mg/kg, subcutaneous 10 mg/kg, mean ± SD of 3 dogs

C[Si](C)(C)c1cccc(C(=O)C(F)(F)F)c1 [MDL 73,745, 2,2,2-Trifluoro-1-(3-trimethylsilylphenyl) ethanone]
rate of in vivo transdermal delivery ([1]; `lead` prototype patch, dog, calculated): 7.7 μg/cm^2 /hr | plasma level ([1]; `lead` prototype patch, throughout patch application (96 hours)): constant, steady state plasma level | ko, rate of release from the delivery system per unit surface area ([1]; patch 70% w/w MDL 73,745 in DuroTak 80-1074, 5 mg/cm^2, same for both doses, from S.ko=Cl.Css): 7.7 μg/hr/cm^2 | half-life [2, 3]: 18.6 h | clearance ([2]; iv, 2 mg/kg, iv 2 mg/kg, dog No. 17, read-out: Cltot): 78.3 mL/min/kg | Vd [2, 3]: 125 L/kg | half-life [2, 4]: 28.1 h | clearance ([2]; iv, 2 mg/kg, iv 2 mg/kg, dog No. 18, read-out: Cltot): 63.3 mL/min/kg | Vd [2, 4]: 153 L/kg | half-life [2, 5]: 26.2 h | clearance ([2]; iv, 2 mg/kg, iv 2 mg/kg, dog No. 19, read-out: Cltot): 100 mL/min/kg | Vd [2, 5]: 228 L/kg | half-life [2, 6]: 24.3 ± 5 h | clearance ([2]; iv, 2 mg/kg, iv 2 mg/kg, mean ± SD of 3 dogs, read-out: Cltot): 80.5 ± 18.5 mL/min/kg | Vd [2, 6]: 169 ± 53.3 L/kg | clearance ([2]; iv, iv data, read-out: drug clearance): 960 mL/min | Cmax [2, 7]: 15.8 ng/mL | Tmax [2, 7]: 1 h | half-life [2, 7]: 21.4 h | Cmax [2, 8]: 15.3 ng/mL | Tmax [2, 8]: 0.17 h | half-life [2, 8]: 29.5 h | Cmax [2, 9]: 21.8 ng/mL | Tmax [2, 9]: 1 h | half-life [2, 9]: 17.4 h | Cmax [2, 10]: 17.7 ± 3.58 ng/mL | Tmax [2, 10]: 0.72 ± 0.48 h | half-life [2, 10]: 22.8 ± 6.2 h | bioavailability ([2]; po, 10 mg/kg, oral 10 mg/kg, dog No. 17, read-out: F (AUCpo /AUCiv)): 3.4% | bioavailability ([2]; po, 10 mg/kg, oral 10 mg/kg, dog No. 18, read-out: F (AUCpo /AUCiv)): 2.6% | bioavailability ([2]; po, 10 mg/kg, oral 10 mg/kg, dog No. 19, read-out: F (AUCpo /AUCiv)): 4.5% | bioavailability ([2]; po, 10 mg/kg, oral 10 mg/kg, mean ± SD of 3 dogs, read-out: F (AUCpo /AUCiv)): 3.5 ± 1% | bioavailability ([2]; po, 10 mg/kg, oral, 10 mg/kg, read-out: Mean bioavailability (F)): 4% | Cmax [2, 11]: 68.4 ng/mL | Tmax [2, 11]: 6 h | half-life [2, 11]: 12.8 h | Cmax [2, 12]: 42.9 ng/mL | Tmax [2, 12]: 8 h | half-life [2, 12]: 32.7 h | Cmax [2, 13]: 44.7 ng/mL | Tmax [2, 13]: 4 h | half-life [2, 13]: 24.5 h | Cmax [2, 14]: 52 ± 14.2 ng/mL | Tmax [2, 14]: 6 ± 2 h | half-life [2, 14]: 23.3 ± 10 h | bioavailability ([2]; sc, 10 mg/kg, subcutaneous 10 mg/kg, dog No. 17, read-out: F): 41% | bioavailability ([2]; sc, 10 mg/kg, subcutaneous 10 mg/kg, dog No. 18, read-out: F): 25% | bioavailability ([2]; sc, 10 mg/kg, subcutaneous 10 mg/kg, dog No. 19, read-out: F): 36% | bioavailability ([2]; sc, 10 mg/kg, subcutaneous, 10 mg/kg, read-out: Mean bioavailability (F)): 34% | bioavailability ([2]; topical or ocular, 10 mg/kg, dermal patch, 10 mg/kg, read-out: Mean bioavailability (F)): 16% | bioavailability ([2]; topical or ocular, 10 mg/kg, topical dermal cream, 10 mg/kg, read-out: Mean bioavailability (F)): 7% | bioavailability ([2]; topical or ocular, 50 mg/kg, dermal patch, 50 mg/kg, read-out: Mean bioavailability (F)): 12% | bioavailability ([2]; topical or ocular, 50 mg/kg, topical dermal cream, 50 mg/kg, read-out: Mean bioavailability (F)): 3% | Metabolic Index (AUCun /AUCRAD) ([2]; iv 2 mg/kg, dog No. 17): 0.011 | Metabolic Index (AUCun /AUCRAD) ([2]; iv 2 mg/kg, dog No. 18): 0.015 | Metabolic Index (AUCun /AUCRAD) ([2]; iv 2 mg/kg, dog No. 19): 0.009 | Metabolic Index (AUCun /AUCRAD) ([2]; iv 2 mg/kg, mean ± SD of 3 dogs): 0.012 ± 0.003 | Metabolic Index (AUCun /AUCRAD) ([2]; oral 10 mg/kg, dog No. 17): 0.0006 | Metabolic Index (AUCun /AUCRAD) ([2]; oral 10 mg/kg, dog No. 18): 0.0011 | Metabolic Index (AUCun /AUCRAD) ([2]; oral 10 mg/kg, dog No. 19): 0.0006 | Metabolic Index (AUCun /AUCRAD) ([2]; oral 10 mg/kg, mean ± SD of 3 dogs): 0.0008 ± 0.0003 | Metabolic Index (AUCun /AUCRAD) ([2]; subcutaneous 10 mg/kg, dog No. 17): 0.006 | Metabolic Index (AUCun /AUCRAD) ([2]; subcutaneous 10 mg/kg, dog No. 18): 0.007 | Metabolic Index (AUCun /AUCRAD) ([2]; subcutaneous 10 mg/kg, dog No. 19): 0.004 | Metabolic Index (AUCun /AUCRAD) ([2]; subcutaneous 10 mg/kg, mean ± SD of 3 dogs): 0.006 ± 0.002
